Measurements reported in paper PMC10744032, “Regioselective and Stereoselective Synthesis of Parthenolide Analogs by Acyl Nitroso-Ene Reaction and Their Biological Evaluation against Mycobacterium tuberculosis” (International Journal of Molecular Sciences, 2023).
Converted amounts (≈) assume the structure as drawn. Where two headings read alike, the source gives them in different places.

Legend:
M. tuberculosis H37Rv = assay: microbe, parasite or virus in culture; format: cell-based, Mycobacterium tuberculosis; details: Mycobacterium tuberculosis, H37RV, 168 h, 7 days incubation, resazurin readout, tested 300 to 2.3 µM, read-out: MIC90 M. tuberculosis (REMA)
[1] = tested on: M. tuberculosis H37Rv expressing GFP (H37Rv::pJKD6); assay: microbe, parasite or virus in culture; format: cell-based, Mycobacterium tuberculosis; details: Mycobacterium tuberculosis, H37RV, 168 h; read-out: MIC98 M. tuberculosis (GFP)
[2] = tested on: Staphylococcus aureus (SH1000); assay: microbe, parasite or virus in culture; format: cell-based; details: Staphylococcus aureus; 5 h incubation, resazurin readout; tested 300 to 2.3 µM; read-out: MIC90 S. aureus (REMA)
[3] = Cytotoxicity by live imaging (Hoechst 33342 / propidium iodide); format: cell-based; details: mouse
Method: The cytotoxicity of the compounds to BALB/3T3 cells was determined using live imaging following both Hoechst 33342 and propidium iodide staining. Briefly, BALB/3T3 cells were seeded in a 384-well plate and 24 h later, the compounds were added (0, 12.5, 25, 50, and 100 µM) to the culture medium, as well as Hoechst 33342 and propidium iodide (PI). Then, 24 h and 48 h after the compounds were added, live imaging was performed using an In Cell Analyzer 6000 (STP GE Healthcare, Glascow, UK). The cytotoxicity was defined based on the ratio of the population of dead or dying cells (propidium iodide staining) to the total cell population (Hoechst staining), as determined using Columbus software 2.9.1 (PerkinElmer Informatics, WA, USA). The compounds were tested in triplicate. Carfilzomib (500, 250, 140, and 60 nM) was used as the positive control in this assay.

[4] = Kinetic solubility in PBS by LC-MS/MS; format: physicochemical; details: kinetic from dmso stock
Method: The kinetic solubility was determined using LC–MS/MS analysis in PBS at pH 7.4. Briefly, a 10 mM 100% DMSO solution of the compound was diluted 50-fold either in PBS at pH 7.4 (in triplicate) or in DMSO in polypropylene tubes (n = 3 for PBS and n = 6 for DMSO). The tubes were gently shaken for 24 h at 21 °C. Then, the three PBS tubes and three of the six DMSO tubes were centrifuged for 5 min at 4000 rpm and filtered over 0.45 μm filters (Millex-LH Millipore). Then, 40 μL of each solution was diluted in 160 μL of MeCN and 40 µL of Milli-Q water and transferred to matrix tubes for the LC–MS/MS analysis. The solubility was determined according to the following formula: Solubility (μM) = (AUC (filtered PBS)/AUC (not filtered DMSO)) × 200. The test was validated if (AUC (not filtered DMSO) − AUC (filtered DMSO))/AUC (not filtered DMSO) ≤ 10%.

[5] = BALB/3T3 cells, 0, 12.5, 25, 50, 100 µM, imaging at 24 h and 48 h, read-out: Cytotoxicity Balb3T3 CC50
[6] = aqueous buffer, kinetic solubility, PBS pH 7.4, 24 h at 21 °C, from 10 mM DMSO solution diluted 50-fold, read-out: Solubility

**Q.** For `C=C1CC[C@H]2C(=C)C(=O)O[C@@H]2[C@@H]2O[C@]2(C)CC[C@H]1N(O)C(=O)Oc1ccc(F)cc1` [Compound 16, (4-fluorophenyl)-N-hydroxy-N-[(1S,2S,4R,7R,11S)-4-methyl-8,12-dimethylene-13-oxo-3,14-dioxatricyclo[9.3.0.02,4]tetradecan-7-yl]carbamate], which MIC90 (M. tuberculosis H37Rv) is on record?
**A.** The MIC90 was 75 µM (≈ 31.3 µg/mL).

**Q.** What about the MIC [1] of the same compound?
**A.** The MIC was 38 to 75 µM (≈ 15.9 to 31.3 µg/mL).

**Q.** And the MIC90 [2]?
**A.** Its MIC90 is greater than 300 µM.

**Q.** And the CC50 [3, 5]?
**A.** The CC50 was 25 µM.

**Q.** And the solubility at 24 h [4, 6]?
**A.** The solubility at 24 h was 182 µM (≈ 76 µg/mL).

**Q.** For `C/C1=C\CC[C@@]2(C)O[C@H]2[C@H]2OC(=O)C(C)[C@@H]2CC1` (stereo partly drawn) [Compound 26, (1S,2S,4R,7E,11S)-4,8,12-trimethyl-3,14-dioxatricyclo[9.3.0.02,4]tetradec-7-en-13-one], which MIC90 (M. tuberculosis H37Rv) is on record?
**A.** The MIC90 was 300 µM (≈ 75.1 µg/mL).

**Q.** What about the MIC [1] of the same compound?
**A.** The MIC was 300 µM (≈ 75.1 µg/mL).

**Q.** For `C=C1CC[C@H]2C(=C)C(=O)O[C@@H]2[C@@H]2O[C@]2(C)CC/C1=N/O` [Compound 23, (1S,2S,4R,7Z,11S)-7-hydroxyimino-4-methyl-8,12-dimethylene-3,14-dioxatricyclo[9.3.0.02,4] tetradecan-13-one], which MIC90 [2] is on record?
**A.** Its MIC90 is greater than 300 µM.

**Q.** And the solubility at 24 h ([4]; 21 °C, pH 7.4, aqueous buffer)?
**A.** The solubility at 24 h was 186 µM (≈ 51.6 µg/mL).

**Q.** Which results are given for `C=C1CC[C@H]2C(=C)C(=O)O[C@@H]2[C@@H]2O[C@]2(C)CC[C@H]1N(O)C(=O)OCC` [Compound 19, Ethyl-N-hydroxy-N-[(1S,2S,4R,7R,11S)-4-methyl-8,12-dimethylene-13-oxo-3,14-dioxatricyclo[9.3.0.02,4]tetradecan-7-yl]carbamate]?
**A.** MIC90 (M. tuberculosis H37Rv): 75 µM (≈ 26.4 µg/mL); MIC [1]: 75 µM (≈ 26.4 µg/mL); CC50 [3]: > 12.5 µM; solubility at 24 h ([4]; 21 °C, pH 7.4, aqueous buffer): 198 µM (≈ 69.6 µg/mL)

**Q.** With `C=C1CC[C@H]2C(=C)C(=O)O[C@@H]2[C@@H]2O[C@]2(C)CC[C@H]1N(O)C(=O)OCC(C)C` [Compound 18, Isobutyl-N-hydroxy-N-[(1S,2S,4R,7R,11S)-4-methyl-8,12-dimethylene-13-oxo-3,14-dioxatricyclo[9.3.0.02,4]tetradecan-7-yl]carbamate] as the compound, how does the MIC90 (M. tuberculosis H37Rv) read?
**A.** The MIC90 was 38 µM (≈ 14.4 µg/mL).

**Q.** And the MIC [1]?
**A.** The MIC was 19 µM (≈ 7.21 µg/mL).

**Q.** What about the CC50 [3] of the same compound?
**A.** The CC50 was 50 µM.

**Q.** What about the solubility at 24 h ([4]; 21 °C, pH 7.4, aqueous buffer) of the same compound?
**A.** Its solubility at 24 h is 190 µM (≈ 72.1 µg/mL).

**Q.** For `CO[C@H]1/C=C/O[C@@]2(C)Oc3c(C)c(O)c4c(O)c(c(/C=N/N5CCN(C)CC5)c(O)c4c3C2=O)NC(=O)/C(C)=C\C=C\[C@H](C)[C@H](O)[C@@H](C)[C@@H](O)[C@@H](C)[C@H](OC(C)=O)[C@@H]1C` [Rifampicin, reference compound], which MIC90 (M. tuberculosis H37Rv) is on record?
**A.** The MIC90 was less than 2.3 µM.

**Q.** What about the MIC [1] of the same compound?
**A.** The MIC was less than 2.3 µM.

**Q.** What about the MIC90 [2] of the same compound?
**A.** Its MIC90 is less than 2.3 µM.

**Q.** Which MIC90 (M. tuberculosis H37Rv) does the source give for `C=C1CC[C@H]2C(=C)C(=O)O[C@@H]2[C@@H]2O[C@]2(C)CC[C@H]1N(O)C(=O)Oc1ccc2c(c1)OCO2` [Compound 20, 1,3-benzodioxol-5-yl-N-hydroxy-N-[(1S,2S,4R,7R,11S)-4-methyl-8,12-dimethylene-13-oxo-3,14-dioxatricyclo[9.3.0.02,4]tetradecan-7-yl]carbamate] here?
**A.** Its MIC90 is 75 µM (≈ 33.3 µg/mL).

**Q.** And the MIC [1]?
**A.** The MIC was 37.5 to 75 µM (≈ 16.6 to 33.3 µg/mL).

**Q.** And the CC50 [3, 5]?
**A.** The CC50 was greater than 12.5 µM.

**Q.** And the solubility at 24 h [4, 6]?
**A.** Its solubility at 24 h is 182 µM (≈ 80.7 µg/mL).

**Q.** Which MIC90 (M. tuberculosis H37Rv) does the source give for `C=C1CC[C@H]2C(=C)C(=O)O[C@@H]2[C@@H]2O[C@]2(C)CC[C@H]1N(O)C(=O)OCCOC` [Compound 21, 2-methoxyethyl-N-hydroxy-N-[(1S,2S,4R,7R,11S)-4-methyl-8,12-dimethylene-13-oxo-3,14-dioxatricyclo[9.3.0.02,4]tetradecan-7-yl]carbamate] here?
**A.** The MIC90 was 150 µM (≈ 57.2 µg/mL).

**Q.** What about the MIC [1] of the same compound?
**A.** Its MIC is 150 to 300 µM (≈ 57.2 to 114 µg/mL).

**Q.** And the CC50 [3]?
**A.** Its CC50 is 100 µM.

**Q.** And the solubility at 24 h ([4]; 21 °C, pH 7.4, aqueous buffer)?
**A.** Its solubility at 24 h is greater than 200 µM.

**Q.** Which results are given for `C=CCOC(=O)N(O)[C@@H]1CC[C@@]2(C)O[C@H]2[C@H]2OC(=O)C(=C)[C@@H]2CCC1=C` [Compound 13, Allyl-N-hydroxy-N-[(1S,2S,4R,7R,11S)-4-methyl-8,12-dimethylene-13-oxo-3,14-dioxatricyclo [9.3.0.02,4]tetradecan-7-yl]carbamate]?
**A.** MIC90 (M. tuberculosis H37Rv): 38 to 75 µM (≈ 13.8 to 27.3 µg/mL); MIC [1]: 38 µM (≈ 13.8 µg/mL); MIC90 [2]: > 300 µM; CC50 [3]: > 12.5 µM; solubility at 24 h ([4]; 21 °C, pH 7.4, aqueous buffer): 192 µM (≈ 69.8 µg/mL)
